The test system of one experiment is peripheral serotonin. The experiment can be described thus: Effect of oral CBMIDA on peripheral serotonin production in mice (serum serotonin ELISA), Example 1. In kind it is in vivo. On the procedure:
The ability of selective TPH1 inhibitor CBMIDA to reduce peripheral serotonin measured in serum was tested. Either 250 or 500 mg/kg doses of CBMIDA were administered orally twice in 20 hours to 4 week old mice, 4-5 mice per group. As a control, some mice were untreated and some received 250 mg/kg pCPA orally. […] CBMIDA has been reported to be an EDTA analog that increases osteoid volume in beagle dogs and induces proliferation of rat calvarial-derived osteoblasts in vitro (Xie, et al., Bioorganic & Medicinal Chemistry Letters 15 (2005) 3267-3270, incorporated herein by reference in its entirety).
One month old C57Bl/6 inbred male mice, weighing 15-16 g were used in the experiments. Animals were housed under 12 h light/12 h dark conditions in a room with controlled temperature (22° C.) and humidity (60%). Mice had ad libitum access to food and water, and were used after a minimum of 4 days of acclimatization to the housing conditions. All experiments were conducted following Columbia University Guidelines for the Animal Use and Care of laboratory mice.
Before the experiments, animals were separated into individual cages one day prior to the experiment. Compounds were fed orally (gavage) to the mouse, calculated according to the weight of the mouse, twice a day at 1700 h and at 1100 h. […] This route created two potential barriers for the compound to reach the brain. […] Control animals received the same volume of vehicle. Blood was collected through heart puncture on isofluorane-anaesthesized animals and allowed to clot for 5 minutes on ice. The serum was separated, snap chilled in liquid nitrogen and frozen at −80° C. till analyzed. Brainstems from all the animals were collected and processed for brain serotonin measurement through HPLC.
The Serotonin ELISA kit obtained from the Fitzgerald company was used to measure derivatized serotonin from serum. Derivatization is part of the sample preparation. Serotonin present in the serum was first quantitatively acylated into N-Acylserotonin using the acylation reagent. The principle of the assay is based on competitive ELISA, wherein serotonin that is bound to the solid phase of the plate and the N-acylserotonin compete for the fixed number of antiserum binding sites. When the reaction is in equilibrium, free antigen and free antigen-antiserum complexes are removed by washing.
The antibody bound to the solid phase serotonin is then detected using antirabbit/peroxidase. The substrate TMB/Peroxidase reaction is read at 450 nm. The amount of antibody bound to the solid phase serotonin is inversely proportional to the concentration of serotonin in the sample.
Catechol-3,6-bis methyleneiminodiacetic acid (CBMIDA) (basic structure is an EDTA-like compound and the catechol ring is at the centre) synthesized at the Columbia University Chemistry division, and para-chlorophenylalanine (pCPA) obtained from Sigma Aldrich Corp. were used. Each compound was dissolved with twice molar solution of NaHCO3 in water and given to mouse orally at 250 and 500 mg/kg/dose.

The subject of another experiment is Lrp5−/− mice. As to the kind of experiment: pCPA treatment of WT and Lrp5−/− mice (bone histomorphometry, serum serotonin, TPH1/TPH2 expression). In kind it is in vivo. On the procedure: Consistent with the conclusion that the increase in serum serotonin level is responsible fully or partly for the bone phenotype of the Lrp5−/− mice is the discovery that pCPA, a serotonin synthesis inhibitor (Eldridge et al., 1981, Ann. Rev. Physiol. 43:121-135), prevented the appearance of the Lrp5−/− bone phenotype by decreasing serotonin production. WT and Lrp5−/− mice were treated with 300 mg/kg pCPA intraperitoneally three times per week, from 3 weeks to 12 weeks of age (FIG. 7A) and the changes in serum serotonin levels, TPH1 expression in gut and TPH2 expression in brain stem were analyzed. Bone histomorphometry was also performed. […] This rescue of the Lrp5−/− phenotype was achieved by normalization of the gut TPH1 mRNA and of serum serotonin levels (FIGS. 7C and 7D).
Generation of Lrp5−/− (Kato et al., 2002, J. Cell Biol. 157:303-314) β-cateninfloxed/floxed (Glass et al., 2005, Dev. Cell 8:751-764), α1(I)collagen-cre transgenic (Dacquin et al., 2002, Dev. Dyn. 224:245-251) and Htt−/− (Ansorge et al., 2008, J. Neurosci. 28:199-207) mice were as described previously. Lrp5+/−;Htt+/− double heterozygous mice were generated by crossing Lrp5+/− and Htt+/− mice. Three week-old Wt or Lrp5−/− mice were administered pCPA on alternate days for 9 weeks by i.p. All animal protocols were approved by the Animal Care Committees of Columbia University.
Static histomorphometry measurements were performed as previously described in accordance with standard nomenclature, using the Osteomeasure Analysis System (Osteometrics, Inc) (Ducy et al., 2000, Cell 100:197-207). Four to 9 animals were assigned per group.
Serotonin serum levels were quantified using immunoassay kits from Fitzgerald (Serotonin) and serotonin levels in the different regions of the brain were quantified by HPLC method as described previously (Mann et al., 1992, Arch. Gen. Psychiatry 49:442-446).

Setting [1] is: 300 mg/kg pCPA i.p. three times per week, 3 to 12 weeks of age, FIG. 7.

“Also recorded” adds a separate entry of the source.

`NC(Cc1ccc(Cl)cc1)C(=O)O` (stereo not shown) [pCPA, para-chlorophenylalanine]: the “reduction of peripheral serotonin measured in serum” value with peripheral serotonin (250 mg/kg orally twice in 20 hours, 4 week old mice) is around 50%. In the experiment with peripheral serotonin (pCPA used as control, oral, FIG. 11), the “serum serotonin levels decreased to % below normal range” value is reported as above 60%. In addition, the “bone mass in WT mice” value with Lrp5−/− mice (300 mg/kg pCPA i.p. three times per week, 3 to 12 weeks of age) is reported as “without overtly affecting”. In the experiment with Lrp5−/− mice (setting [1]), the “gut TPH1 mRNA in Lrp5−/− mice” value is listed as “normalization” and the “serum serotonin levels in Lrp5−/− mice” value is listed as “normalization; also recorded: normalizes”. Also, the “bone abnormalities (low bone phenotype) of Lrp5−/− mice” value in the experiment with Lrp5−/− mice (300 mg/kg pCPA i.p. three times per week, 3 to 12 weeks of age, histomorphometry, FIG. 7B) was “corrected”. In the experiment with Lrp5−/− mice (treated mice, 300 mg/kg pCPA i.p.), the “Brain TPH2 mRNA levels” value is given as “not affected”.
